# Data taken from patent US11807625B2, “Capsid inhibitors for the prevention of HIV” (Gilead Sciences, Inc., priority 2019, dated 2023).
# Read-outs that look alike come from different tables or passages of the source.
# Assay: PK of compound of Formula (Ia) after single subcutaneous dose of solution formulations in beagle dogs
# Format: in vivo
# Conditions: male, beagle, dog, plasma, sc; for AUC(0-t): 6 mg/kg, mean ± SD, SC 6 mg/kg, solution V, 300 mg/mL
# Protocol: Formulations containing the compound of Formula (Ia), or a pharmaceutically acceptable salt thereof, were prepared as solutions and optionally administered subcutaneously or intramuscularly to rats, rabbits, and/or dogs.
# (§1) A solution of about 400 mg/mL of the compound of Formula (Ia) having 17.00 w/w % water, 36.40 w/w % PEG 300, 35.20 w/w % of a sodium salt of a compound of Formula (Ia), 5.00 w/w % ethanol, and 6.40 w/w % poloxamer 188 was prepared. The solution was administered subcutaneously to male beagle dogs at a dose level of about 12 mg/kg and male Wistar Han rats at a dose level of about 50 mg/kg. The pharmacokinetic profiles were determined, and the results for dogs are summarized in Table and Table, while the results for rats are summarized in Table and Table below.
# as §1, with “500” for “400”, “14.06” for “17.00”, “30.12” for “36.40”
# A solution of about 300 mg/mL of the compound of Formula (Ia) having 23.33 w/w % water, 48.99 w/w % PEG 300, 26.47 w/w % of a sodium salt of a compound of Formula (Ia), and 1.21 w/w % poloxamer 188 was prepared. The solution was administered subcutaneously to male beagle dogs at a dose level of about 6 mg/kg and male Wistar Han rats at a dose level of about 50 mg/kg. The pharmacokinetic profiles were determined, and the results for dogs are summarized in Table and Table, while the results for rats are summarized in Table and Table below.
# as §1, with “18.80” for “17.00”, “40.25” for “36.40”, “34.38” for “35.20”, “1.57” for “6.40”
# as §1, with “500” for “400”, “16.29” for “17.00”, “34.88” for “36.40”, “41.92” for “35.20”, “1.91” for “6.40”
# as §1, with “20.90” for “17.00”, “44.72” for “36.40”, “and 34.38” for “35.20”, “(Ia)” for “(Ia), 5.00 w/w % ethanol, and 6.40 w/w % poloxamer 188”
# A solution of about 400 mg/mL of the compound of Formula (Ia) having 19.90 w/w % water, 42.59 w/w % PEG 300, 34.38 w/w % of a sodium salt of a compound of Formula (Ia), and 3.13 w/w % poloxamer 188 was prepared. The solution was administered subcutaneously to male beagle dogs at a dose level of about 12 mg/kg and male Wistar Han rats at a dose level of about 50 mg/kg. […]
# [1] = 12 mg/kg, mean, n = 3 dogs, SC 12 mg/kg, solution T, 400 mg/mL
# [2] = 12 mg/kg, mean, n = 3 dogs, SC 12 mg/kg, solution U, 500 mg/mL
# [3] = 12 mg/kg, individual dogs, SC 12 mg/kg, solution T, 400 mg/mL
# [4] = 12 mg/kg, individual dogs, SC 12 mg/kg, solution U, 500 mg/mL
# [5] = 12 mg/kg, beagle dogs, SC 12 mg/kg, 400 mg/mL solution AA (6.25% poloxamer 188), Mean n = 3
# [6] = 12 mg/kg, beagle dogs, SC 12 mg/kg, 400 mg/mL solution AA (6.25% poloxamer 188), animals #1-#3
# [7] = 12 mg/kg, beagle dogs, SC 12 mg/kg, 400 mg/mL solution W (5.00% ethanol, 1.57% poloxamer 188), Mean n = 3
# [8] = 12 mg/kg, beagle dogs, SC 12 mg/kg, 400 mg/mL solution W (5.00% ethanol, 1.57% poloxamer 188), animals #1-#3
compound,measurement,setting,value
CC(C)(C#Cc1ccc(-c2ccc(Cl)c3c(NS(C)(=O)=O)nn(CC(F)(F)F)c23)c([C@H](Cc2cc(F)cc(F)c2)NC(=O)Cn2nc(C(F)(F)F)c3c2C(F)(F)[C@@H]2C[C@H]32)n1)S(C)(=O)=O [compound of Formula (Ia)],AUC(0-t),"n = 3 dogs, read-out: AUC0-2016 h",107 ± 12 µM·h
same,AUC(0-t),"n = 3 dogs, read-out: AUC0-2253 h",109 ± 12 µM·h
same,AUC(0-t),"n = 3 dogs, read-out: AUC0-2688 h",110 ± 12 µM·h
same,AUC(0-t),"n = 3 dogs, read-out: AUC0-3024 h",111 ± 13 µM·h
same,AUC(0-t),"n = 3 dogs, read-out: AUC0-4032 h",112 ± 13 µM·h
same,AUC(0-t),"n = 3 dogs, read-out: AUC0-4368 h",112 ± 13 µM·h
same,concentration at 1 h,[1],6.07 nM
same,concentration at 1 h,[2],5.59 nM
same,concentration at 3 h,[1],18.1 nM
same,concentration at 3 h,[2],22 nM
same,concentration at 8 h,[3],83.9 nM
same,concentration at 8 h,[1],72.9 nM
same,concentration at 8 h,[2],61.2 nM
same,concentration at 24 h,[3],233 nM
same,concentration at 24 h,[1],224 nM
same,concentration at 24 h,[2],134 nM
same,concentration at 48 h,[4],72.8 nM
same,concentration at 48 h,[1],241 nM
same,concentration at 48 h,[2],87.2 nM
same,concentration at 72 h,[4],49.4 nM
same,concentration at 72 h,[1],223 nM
same,concentration at 72 h,[2],58.6 nM
same,concentration at 96 h,[4],49 nM
same,concentration at 96 h,[1],232 nM
same,concentration at 96 h,[2],52.4 nM
same,concentration at 168 h,[1],221 nM
same,concentration at 168 h,[2],97.5 nM
same,concentration at 336 h,[3],179 nM
same,concentration at 336 h,[4],114 nM
same,concentration at 336 h,[1],261 nM
same,concentration at 336 h,[2],152 nM
same,concentration at 504 h,[3],286 nM
same,concentration at 504 h,[4],151 nM
same,concentration at 504 h,[1],238 nM
same,concentration at 504 h,[2],149 nM
same,concentration at 672 h,[3],150 nM
same,concentration at 672 h,[1],116 nM
same,concentration at 672 h,[2],81.9 nM
same,concentration at 840 h,[1],90.8 nM
same,concentration at 840 h,[2],72.6 nM
same,concentration at 1008 h,[3],75.5 nM
same,concentration at 1008 h,[1],73.6 nM
same,concentration at 1008 h,[2],58.3 nM
same,concentration at 1344 h,[3],42.5 nM
same,concentration at 1344 h,[4],43.3 nM
same,concentration at 1344 h,[1],36.2 nM
same,concentration at 1344 h,[2],34.8 nM
same,concentration at 1680 h,[3],19.9 nM
same,concentration at 1680 h,[1],23.9 nM
same,concentration at 1680 h,[2],21.3 nM
same,concentration at 2016 h,[1],11.8 nM
same,concentration at 2016 h,[2],10.3 nM
same,concentration at 2352 h,[3],4.8 nM
same,concentration at 2352 h,[1],6 nM
same,concentration at 2352 h,[2],7.5 nM
same,concentration at 1 h,[5],4 nM
same,concentration at 3 h,[5],13.8 nM
same,concentration at 8 h,[5],42.3 nM
same,concentration at 24 h,[5],134 nM
same,concentration at 24 h,[6],118 nM
same,concentration at 48 h,[5],148 nM
same,concentration at 48 h,[6],102 nM
same,concentration at 72 h,[5],135 nM
same,concentration at 96 h,[5],180 nM
same,concentration at 96 h,[6],140 nM
same,concentration at 168 h,[5],101 nM
same,concentration at 168 h,[6],106 nM
same,concentration at 336 h,[5],185 nM
same,concentration at 336 h,[6],204 nM
same,concentration at 504 h,[5],182 nM
same,concentration at 672 h,[5],183 nM
same,concentration at 672 h,[6],157 nM
same,concentration at 840 h,[5],109 nM
same,concentration at 840 h,[6],103 nM
same,concentration at 1008 h,[5],85.4 nM
same,concentration at 1008 h,[6],77.6 nM
same,concentration at 1334 h,[5],47.6 nM
same,concentration at 1334 h,[6],35.8 nM
same,concentration at 1680 h,[5],28 nM
same,concentration at 1680 h,[6],24 nM
same,concentration at 2016 h,[5],15.4 nM
same,concentration at 2016 h,[6],10.2 nM
same,concentration at 2352 h,[5],10.5 nM
same,concentration at 2688 h,"12 mg/kg, beagle dogs, SC 12 mg/kg, 400 mg/mL solution AA (6.25% poloxamer 188), 2688 h, Mean n = 3",5.47 nM
same,concentration at 3024 h,"12 mg/kg, beagle dogs, SC 12 mg/kg, 400 mg/mL solution AA (6.25% poloxamer 188), 3024 h, Mean n = 3",3.54 nM
same,concentration at 3360 h,"12 mg/kg, beagle dogs, SC 12 mg/kg, 400 mg/mL solution AA (6.25% poloxamer 188), 3360 h, Mean n = 3",1.97 nM
same,concentration at 3696 h,"12 mg/kg, beagle dogs, SC 12 mg/kg, 400 mg/mL solution AA (6.25% poloxamer 188), Mean",1.56 nM
same,concentration at 3696 h,[6],1.63 nM
same,concentration at 3 h,[7],3.84 nM
same,concentration at 3 h,[8],3.45 nM
same,concentration at 8 h,[7],18 nM
same,concentration at 24 h,[7],37.8 nM
same,concentration at 24 h,[8],35.4 nM
same,concentration at 48 h,[7],48.2 nM
same,concentration at 72 h,[7],48.6 nM
